Experimental data published in patent US4746728A, “8-glycine, des-19-leucine-calcitonin” (Armour Pharmaceutical Company, priority 1986, dated 1988).
Positions of bridges follow the written chain, without caps; N, C: chain ends. Residues, ends and D or L forms follow the SMILES beside them. No end group written: not given here.

Legend:
[1] = system: serum calcium concentration
Method: Biological Assay Of Calcitonin Analogs In Vivo
Rats were divided into four groups of seven animals, and each group was assigned at random to a dose of standard or test solution. Low and high doses were chosen from the linear portion of the dose-response curve. For the salmon calcitonin standard, the values were 0.7 and 2.1 ng. peptide/100 g. body weight (BW). This dose approximates 3 and 9 MU/100 g. […] Peptides were given by subcutaneous injection (0.2 ml/100 g. BW) and blood was withdrawn 1 hour later for serum calcium determination. Sera are processed and analyzed within two hours of collection. Results were analyzed within two hours of collection.

[2] = literature values, Monikawa et al.; cited from earlier work

Compound: CC(C)C[C@H](NC(=O)CNC(=O)[C@@H]1CSSC[C@H](N)C(=O)N[C@@H](CO)C(=O)N[C@@H](CC(N)=O)C(=O)N[C@@H](CC(C)C)C(=O)N[C@@H](CO)C(=O)N[C@@H]([C@@H](C)O)C(=O)N1)C(=O)NCC(=O)N[C@@H](CCCCN)C(=O)N[C@@H](CC(C)C)C(=O)N[C@@H](CO)C(=O)N[C@@H](CCC(N)=O)C(=O)N[C@@H](CCC(=O)O)C(=O)N[C@@H](CC(C)C)C(=O)N[C@@H](Cc1c[nH]cn1)C(=O)N[C@@H](CCCCN)C(=O)N[C@@H](CCC(N)=O)C(=O)N[C@H](C(=O)N[C@@H](Cc1ccc(O)cc1)C(=O)N1CCC[C@H]1C(=O)N[C@@H](CCCNC(=N)N)C(=O)N[C@H](C(=O)N[C@@H](CC(N)=O)C(=O)N[C@H](C(=O)NCC(=O)N[C@@H](CO)C(=O)NCC(=O)N[C@H](C(=O)N1CCC[C@H]1C(N)=O)[C@@H](C)O)[C@@H](C)O)[C@@H](C)O)[C@@H](C)O [Gly^8, des-Leu^19 -SCT, 8-glycine, des-19-leucine-salmon calcitonin] (H-CSNLSTCGLGKLSQELHKQTYPRTNTGSGTP-NH2; disulfide 1-7)
- biological potency ([1]; rat, in vivo, sc): 11,400 IU/mg

Compound: eel calcitonin (CSNLSTCVLGKLSQELHKLQTYPRTDVGAGTP; ends and bridges not checked; cysteine pairing not given here; UniProt P01262 1-32, looked up) [synthetic eel calcitonin, natural 32-amino-acid calcitonin peptide]
- hypocalcemic potency [2]: around 4300 IU/mg

Compound: CC(C)C[C@H](NC(=O)[C@H](CCCCN)NC(=O)CNC(=O)[C@H](CC(C)C)NC(=O)[C@@H](NC(=O)[C@@H]1CSSC[C@H](N)C(=O)N[C@@H](CO)C(=O)N[C@@H](CC(N)=O)C(=O)N[C@@H](CC(C)C)C(=O)N[C@@H](CO)C(=O)N[C@@H]([C@@H](C)O)C(=O)N1)C(C)C)C(=O)N[C@@H](CO)C(=O)N[C@@H](CCC(N)=O)C(=O)N[C@@H](CCC(=O)O)C(=O)N[C@@H](CC(C)C)C(=O)N[C@@H](Cc1c[nH]cn1)C(=O)N[C@@H](CCCCN)C(=O)N[C@@H](CC(C)C)C(=O)N[C@@H](CCC(N)=O)C(=O)N[C@H](C(=O)N[C@@H](Cc1ccc(O)cc1)C(=O)N1CCC[C@H]1C(=O)N[C@@H](CCCNC(=N)N)C(=O)N[C@H](C(=O)N[C@@H](CC(N)=O)C(=O)N[C@H](C(=O)NCC(=O)N[C@@H](CO)C(=O)NCC(=O)N[C@H](C(=O)N1CCC[C@H]1C(N)=O)[C@@H](C)O)[C@@H](C)O)[C@@H](C)O)[C@@H](C)O [salmon calcitonin, Salmon calcitonin]
- potency of the standard salmon calcitonin used ([1]; independently determined content of the standard): greater than 4,000 IU/mg
